Where “and” joins values, the source holds several entries; their conditions need not be identical. Identical values can stand only once.
Experiments:
HDAC2 = molecular target: T1, HDAC2 (Homo sapiens, UniProt Q92769); assay: biochemical
T1 construct: purchased BPS Bioscience
Protocol: Commercial fluorescent assay kits were used to measure the activities of HDAC (BPS Bioscience). Briefly, the tested compounds were diluted in DMSO into a 96-well plate, and then assay buffer, HDAC, and substrate were added. The plate was incubated at 37° C for 30 minutes for enzymatic reactions, and the developer was added. After 10 minutes of incubation, the generated fluorescence was measured at an excitation of 380 nm and an emission of 460 nm.

TMPRSS2 = TMPRSS2 mRNA (qRT-PCR) and protein (Western blot) expression in VCaP cells; type: cell-based; settings: 10 nM DHT, 24 hours
Protocol: RNA expression level was analyzed by qRT-PCR and protein expression level was analyzed by Western blot. […] (I) Representative immunofluorescence microscopic images of VCaP cells for checking the subcellular localization of AR.
The RNA of VCaP cells was extracted using a Simply P Total RNA Extraction kit (Bioer technology) and cDNA was synthesized using a SMARTer PCR cDNA Synthesis Kit (Clontech). PSA and β-actin primers were synthesized by Sangon Biotech according to previous literature. Real-time PCR was performed using the PowerUp SYBR™ Green kit (ThermoFisher). The PCR program was run on a LightCycler 480II (Roche) and set as follows: 2 minutes at 95° C followed by 40 cycles of 30 seconds at 95° C, 15 seconds at 60° C and 30 seconds at 72° C. Data were quantified using the 2-ΔΔCt method based on the Ct values of PSA and β-actin from two parallel experiments performed in triplicate.
The whole-cell extracts were prepared in lysis buffer with a protease inhibitor cocktail (Bimake), while the xenograft tissue extracts were prepared in 0.5% Nonidet P 40 Substitute solution (Biosharp) with cocktail protease inhibitor (Bimake). Each sample containing 30 μg of total protein was loaded onto 10% SDS-PAGE and electrotransferred onto polyvinylidene fluoride membranes. […]

[1] = pharmacokinetics of Zeta55 in rats; type: in vivo; settings: for AUC(0-t): 0-72h
Protocol: To evaluate the pharmacokinetic properties of Zeta55 in vivo, rats were orally (20 mg/kg) or intravenously (5 mg/kg) administrated with Zeta55, and the plasma concentration of Zeta55 was measured using LC-MS/MS.
SD male rats weighing about 250 g were used for the pharmacokinetics study of Zeta55. After a fast of 12 hours, four rats were oral administrated with 20 mg/kg Zeta55 and one rat was tail vein injected with 5 mg/kg Zeta55. Plasma samples of 0.2 ml were taken at 0, 0.083, 0.25, 0.5, 1, 2, 3, 5, 8, 10, 24, 48, and 72 hours after administration and then measured by LC-MS/MS. AUC0-t, AUC0-∞, t1/2, Tmax, Vz/F, and Cl/F were analyzed by Phoenix winnonlin 8.0.

VCaP xenograft tumors = assay: castration-resistant VCaP xenograft mouse model; type: in vivo, NOD-SCID mice
Description: Figure 4 Zeta55 inhibits tumor growth in a CRPC xenograft model. (A) Percentage change in individual tumor volume of NOD-SCID mice with subcutaneous tumor xenograft grown from VCaP cells. NOD-SCID mice were castrated when the tumor volumes reached about 250mm^3 on 63 days after subcutaneous injection of VCaP cells. […]. Tumor sizes were monitored twice a week after treatment. (B) Mean tumor volumes (mm^3, +SEM) of NOD-SCID mice after treatment. (C) Mean body weight (g, +SEM) of NOD-SCID mice after treatment. *, P < 0.01 vs. vehicle.
The animal protocols used in this study were evaluated and approved by the Xiangya Hospital Medical ethics committee of Central South University. NOD-SCID mice were purchased from Hunan SJA Laboratory Animal Co. Ltd. with a quality license and raised in the SPF Laboratory Animal Room of the Department of Laboratory Zoology at Central South University. Briefly, VCaP cells were suspended in DMEM and Matrigel (BD) (1:1), and 5×10^6 cells/100 μl were subcutaneously injected into a 7-week-old male NOD-SCID mouse. […]. VCaP xenografts were measured twice per week in two dimensions (L and W) by a Vernier caliper, and the tumor volume was calculated as W^2×L/2 (mm^3).
Formalin-fixed, paraffin-embedded xenograft tissue sections were used for immunohistochemistry. TUNEL staining was performed according to the instructions in the TUNEL kit (KeyGEN). Tissue sections were deparaffinized and then boiled in 0.01 mol/L sodium citrate buffer (pH 6.0) in a kilowatt microwave oven for 10 minutes to retrieve cell antigens. Ki67 (Abcam, ab15580) or AR (SANTA, sc-7305) was used as the primary antibody. All tissue sections were immunohistochemically stained using the avidin-biotin-peroxidase method and were counterstained with hematoxylin. The staining intensities were evaluated at 100× magnification.

[2] = IV, tail vein injection 5 mg/kg, n=1, rats
[3] = male, SD, rat, plasma, IV, tail vein injection 5 mg/kg, n=1, rats
[4] = male, SD, rat, plasma, PO, oral gavage 20 mg/kg, n=4, rats

T1 sequence (Q92769 whole entry): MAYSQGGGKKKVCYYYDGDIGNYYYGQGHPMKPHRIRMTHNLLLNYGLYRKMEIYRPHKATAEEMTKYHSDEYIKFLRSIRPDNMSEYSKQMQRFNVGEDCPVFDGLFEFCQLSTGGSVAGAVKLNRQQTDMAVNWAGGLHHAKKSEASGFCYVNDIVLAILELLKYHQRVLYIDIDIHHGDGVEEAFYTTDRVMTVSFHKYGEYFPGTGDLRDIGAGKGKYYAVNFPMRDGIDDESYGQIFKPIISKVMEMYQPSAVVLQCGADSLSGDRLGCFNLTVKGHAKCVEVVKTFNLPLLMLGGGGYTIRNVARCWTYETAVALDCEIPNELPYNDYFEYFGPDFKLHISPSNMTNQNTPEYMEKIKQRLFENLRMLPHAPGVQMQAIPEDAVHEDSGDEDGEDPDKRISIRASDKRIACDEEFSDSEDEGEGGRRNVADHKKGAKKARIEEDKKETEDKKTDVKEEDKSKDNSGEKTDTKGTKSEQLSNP

N#Cc1ccc(N2C(=O)C3(CCC3)N(c3ccc(C(=O)NO)c(F)c3)C2=S)cc1C(F)(F)F [Zeta55]
IC50 (HDAC2): > 20 µM | DHT-induced endogenous mRNA and protein expression of TMPRSS2 (TMPRSS2): significantly suppressed | Cl/F [1, 2]: 114.6149 mL/min/kg | Vz/F [1, 2]: 7.741576 L/kg | t1/2 ([1]; PO, oral gavage 20 mg/kg, n=4, rats, plasma, 20 mg/kg): 174 min and 175.5 min | half-life ([1]; male, SD, rat, plasma, iv, 5 mg/kg, tail vein injection 5 mg/kg, n=1, rats): ~48 min | half-life ([1]; male, SD, rat, plasma, po, 20 mg/kg, oral gavage 20 mg/kg, n=4, rats): ~174 min | AUC(0-inf) [1, 3]: 727 ng·h/mL | Cmax [1, 3]: 1430 ng/mL | Tmax [1, 3]: 4.98 min | AUC(0-t) [1, 3]: 722 ng·h/mL | bioavailability ([1]; male, SD, rat, plasma, PO 20 mg/kg vs IV 5 mg/kg, rats): 17.6% | AUC(0-inf) [1, 4]: 555 ng·h/mL | CL/F [1, 4]: 632 mL/min/kg | Cmax [1, 4]: 183 ng/mL | Tmax [1, 4]: 22.5 min | AUC(0-t) [1, 4]: 508 ng·h/mL | Vd/F ([1]; male, SD, rat, plasma, PO, oral gavage 20 mg/kg, n=4, rats, read-out: Vz/F): 166 L/kg | antitumor activity (VCaP xenograft tumors; 30 mg/kg/d oral, 49 days, compared with MDV3100 30 mg/kg/d): slightly better antitumor activity than MDV3100 | tumors with tumor regression (VCaP xenograft tumors; 60 mg/kg/d oral, 49 days, n=6, castrated NOD-SCID mice): 5 of 6 | weights of mice during treatment (VCaP xenograft tumors; 30 and 60 mg/kg daily oral): did not decrease significantly | expression of AR and PSA in treated tumors (VCaP xenograft tumors; immunohistochemical and Western blot analysis, compared to MDV3100 and vehicle): decreased expression of AR and PSA | Ki-67 staining of tumor xenografts (VCaP xenograft tumors; mouse, in vivo): inhibited tumor cell proliferation | TUNEL staining of tumor xenografts (VCaP xenograft tumors; mouse, in vivo): induced apoptosis
